# Reference: patent US7807678B2, “Peptidomimetics of biologically active metallopeptides” (Palatin Technologies, Inc., priority 2001, dated 2010)
# Read-outs that look alike come from different tables or passages of the source.
# Columns and labels:
# MC4-R [1] = target: T1, MC4-R (Homo sapiens, UniProt P32245); test: Competitive inhibition binding assay, 125I-NDP-α-MSH, MC4-R; design: expressed in transfected cells
# In short: (§1)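 Membranes from hMC3-R, hMC4-R or hMC5-R cells, or B-16 mouse melanoma cells (MC1-R), were incubated 90 min at room temperature with 0.4 nM 125I-NDP-α-MSH in HEPES pH 7.2 with Mg2+/Ca2+/K+, and test compound generally at 1 μM. Filter-bound radioactivity was gamma counted. Specific binding was defined with 1 μM α-MSH; triplicate means.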
# MC5-R [2] = target: T2, MC5-R (Homo sapiens, UniProt P33032); test: Ki determination by the method of Example 4, MC5-R; type: binding; design: expressed in transfected cells; host or cells: HEK-293
# Procedure: (§2) The Ki (nM) of certain peptidomimetics were determined, as was the agonist/antagonist status with respect to MC4-R, Functional evaluation of compounds at melanocortin receptors was performed by measuring the accumulation of intracellular cAMP in HEK-293 cells expressing MC3-R, MC4-R or MC5-R, and in B-16 mouse melanoma cells (containing MC1-R). Antagonistic activity was determined by measuring the inhibition of α-MSH-induced cAMP levels following exposure to the compounds. Cells, suspended in Earle's Balanced Salt Solution containing 10 mM HEPES, pH 7.5, 5 mM MgCl2, 1 mM glutamine, 0.1% albumin and 0.6 mM 3-isobutyl-1-methyl-xanthine, a phosphodiesterase inhibitor, were plated in 96 well plates at a density of 0.5×10^5 cells per well. Cells were incubated with the test compounds in the presence or absence of α-MSH for 1 hour at 37° C. cAMP levels were measured by EIA (Amersham) in the cell lysates. Data analysis and EC50 values were determined using nonlinear regression analysis with Prism Graph-Pad software.
# MC3-R [3] = target: T3, MC3-R (Homo sapiens, UniProt P41968); test: Ki determination by the method of Example 4, MC3-R; type: binding; design: expressed in transfected cells; host or cells: HEK-293
# Procedure: as §2
# MC5-R [4] = target: T2, MC5-R; test: Competitive inhibition binding assay, 125I-NDP-α-MSH, MC5-R; design: expressed in transfected cells
# In short: as §1
# MC3-R [5] = target: T3, MC3-R; test: Competitive inhibition binding assay, 125I-NDP-α-MSH, MC3-R; design: expressed in transfected cells
# In short: as §1
# [6] = target: T4, MC1-R (B-16 mouse melanoma cells) (Mus musculus, UniProt Q01727); test: Competitive inhibition binding assay, 125I-NDP-α-MSH, MC1-R
# T4 construct: B-16 mouse melanoma cells (containing MC1-R); endogenous in cells; host or cells: B-16 mouse melanoma cells
# In short: as §1
# MC4-R [7] = target: T1, MC4-R; test: Ki determination by the method of Example 4, MC4-R; type: binding; design: expressed in transfected cells; host or cells: HEK-293; conditions: read-out: Ki (nM) MC4-R
# Procedure: as §2
# [8] = target: T4, MC1-R (B-16 mouse melanoma cells); test: Ki determination by the method of Example 4, MC1-R; type: binding
# Procedure: as §2
# [9] = target: T4, MC1-R (B-16 mouse melanoma cells); test: cAMP assay for agonist/antagonist status, MC1-R; type: cell-based
# Procedure: as §2
# MC4-R (HEK-293 cells) = target: T5, MC4-R (HEK-293 cells) (Homo sapiens, UniProt P32245); test: cAMP assay for agonist/antagonist status, MC4-R; type: cell-based
# T5 construct: expressed in transfected cells; host or cells: HEK-293
# Procedure: as §2
# [10] = bound in μM, read-out: Ki MC3-R
# [11] = bound in μM, read-out: Ki MC1-R
# [12] = 1 μM compound, inhibition of 125I-NDP-α-MSH binding, mean of triplicates, results less than 0% reported as 0%
# T3 sequence (P41968 whole entry): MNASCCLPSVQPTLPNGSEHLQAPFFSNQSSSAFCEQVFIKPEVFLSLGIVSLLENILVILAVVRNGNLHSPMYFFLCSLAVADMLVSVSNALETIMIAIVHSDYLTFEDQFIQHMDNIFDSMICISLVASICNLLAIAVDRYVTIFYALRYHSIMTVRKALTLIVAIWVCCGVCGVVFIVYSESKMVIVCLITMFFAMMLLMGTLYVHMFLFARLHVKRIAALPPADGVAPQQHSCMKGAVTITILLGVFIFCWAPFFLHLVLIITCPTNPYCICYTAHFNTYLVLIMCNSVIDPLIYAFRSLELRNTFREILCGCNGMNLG
# T1 sequence (P32245 whole entry): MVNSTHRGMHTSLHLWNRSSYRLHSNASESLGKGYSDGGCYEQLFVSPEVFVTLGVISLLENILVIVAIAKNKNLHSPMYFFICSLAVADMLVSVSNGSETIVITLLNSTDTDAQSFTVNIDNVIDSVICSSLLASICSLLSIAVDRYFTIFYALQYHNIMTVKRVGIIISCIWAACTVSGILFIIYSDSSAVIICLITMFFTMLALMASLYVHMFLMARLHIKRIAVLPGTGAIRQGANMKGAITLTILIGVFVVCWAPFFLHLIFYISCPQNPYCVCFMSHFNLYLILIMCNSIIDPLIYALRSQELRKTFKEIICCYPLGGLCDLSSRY
# T2 sequence (P33032 whole entry): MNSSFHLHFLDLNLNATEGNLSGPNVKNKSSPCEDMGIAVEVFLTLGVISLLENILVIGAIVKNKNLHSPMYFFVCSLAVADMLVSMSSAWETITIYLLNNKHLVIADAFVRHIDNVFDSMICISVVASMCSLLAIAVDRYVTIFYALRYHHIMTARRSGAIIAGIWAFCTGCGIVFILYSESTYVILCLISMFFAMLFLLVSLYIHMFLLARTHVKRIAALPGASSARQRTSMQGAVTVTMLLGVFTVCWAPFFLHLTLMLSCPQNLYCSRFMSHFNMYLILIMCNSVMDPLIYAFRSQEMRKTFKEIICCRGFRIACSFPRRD
# T4 sequence (Q01727 whole entry): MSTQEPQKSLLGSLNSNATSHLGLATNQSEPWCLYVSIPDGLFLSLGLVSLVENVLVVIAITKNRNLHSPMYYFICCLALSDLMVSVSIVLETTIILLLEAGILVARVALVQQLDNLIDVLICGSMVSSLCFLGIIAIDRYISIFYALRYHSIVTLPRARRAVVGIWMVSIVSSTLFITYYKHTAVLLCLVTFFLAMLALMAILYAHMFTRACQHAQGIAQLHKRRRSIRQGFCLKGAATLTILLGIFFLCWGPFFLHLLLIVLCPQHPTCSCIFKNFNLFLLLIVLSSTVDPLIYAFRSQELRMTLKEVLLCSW
# T5 sequence (P32245 whole entry): as the sequence (P32245 whole entry) above
SMILES,inhibition at 1 µM (MC4-R [1]),Ki (MC5-R [2]; read-out: Ki (nM) MC5-R),Ki (MC3-R [3]; read-out: Ki (nM) MC3-R),inhibition at 1 µM (MC5-R [4]),inhibition at 1 µM (MC3-R [5]),inhibition at 1 µM [6],Ki (MC4-R [7]),Ki ([8]; read-out: Ki (nM) MC1-R),Ki (MC3-R [3]; [10]),other results
N=C(N)NCCCC1C(=O)N(CCc2c[nH]c3ccccc23)CCN1C(=O)C(Cc1ccc(Cl)cc1)NC(=O)C1Cc2ccccc2CN1 (stereo not shown) [Example 14],99%,52 nM,77 nM,89%,88%,96%,2 nM,3 nM,–,–
NCCCC[C@H]1C(=O)N(CCc2ccc3ccccc3c2)CCN1C(=O)[C@@H](Cc1ccc(Cl)cc1Cl)NC(=O)[C@@H]1CC[C@H](c2ccccc2)N1 [Example 26],–,789 nM,–,–,–,–,50 nM,–,> 1000 nM,"Ki [8, 11]: > 1000 nM"
NC(COCc1ccccc1)C(=O)NC(Cc1ccc(Cl)cc1Cl)C(=O)N1CCN(CCc2ccc3ccccc3c2)C(=O)C1CCCNC1=NCCN1 (stereo not shown) [Example 48],99%,104 nM,–,75%,60%,63%,4 nM,–,> 1000 nM,"Ki [8, 11]: > 1000 nM"
N=C(N)NCCCC1C(=O)N2C(COc3ccc4ccccc4c3)CCC2N1C(=O)C(Cc1ccccc1)NC(=O)C(N)Cc1cnc[nH]1 (stereo not shown) [Example 97],–,–,–,–,–,–,226 nM,1 nM,> 1000 nM,"Ki (MC5-R [2]; bound in μM, read-out: Ki MC5-R): > 1000 nM"

# More lines, main results first:
inhibition at 1 µM (MC4-R [1]),Ki (MC5-R [2]; read-out: Ki (nM) MC5-R),Ki (MC3-R [3]; read-out: Ki (nM) MC3-R),inhibition at 1 µM (MC5-R [4]),inhibition at 1 µM (MC3-R [5]),inhibition at 1 µM [6],Ki (MC4-R [7]),Ki ([8]; read-out: Ki (nM) MC1-R),Ki (MC3-R [3]; [10]),SMILES,other results
99%,32 nM,17 nM,94%,97%,96%,2 nM,4 nM,–,N=C(N)NCCCC1C(=O)N(CCc2c[nH]c3ccccc23)CCN1C(=O)C(Cc1ccc(Cl)cc1)NC(=O)C(COCc1ccccc1)NC(=O)CCCCCCN (stereo not shown) [Example 17],–
–,–,–,–,–,–,–,–,> 1000 nM,NCCCCC1C(=O)N2C(COc3ccc4ccccc4c3)CCC2N1C(=O)C(Cc1ccc(Cl)cc1)NC(=O)C1Cc2ccccc2CN1 (stereo not shown) [Example 80],–
–,134 nM,209 nM,–,–,–,–,–,–,CCCCCCC(=O)NC(COCc1ccccc1)C(=O)NC(Cc1ccc(Cl)cc1)C(=O)N1C(CCCCN)C(=O)N2C(COc3ccc4ccccc4c3)CCC21 (stereo not shown) [Example 81],–
–,–,–,–,–,–,–,–,> 1000 nM,N=C(N)NCCCC1C(=O)N2C(COc3ccc4ccccc4c3)CCC2N1C(=O)C(Cc1ccccc1Cl)NC(=O)C(N)COCc1ccccc1 (stereo not shown) [Example 99],–
–,284 nM,854 nM,–,–,–,42 nM,244 nM,–,N=C(N)NCCC[C@H]1C(=O)N2C(CC[C@@H]2COc2ccc3ccccc3c2)N1C(=O)[C@@H](Cc1ccccc1Cl)NC(=O)[C@@H]1C[C@@H](OCc2ccccc2)CN1 (stereo partly shown) [Example 100],"agonist/antagonist status as to MC1-R [9]: agonist; Inhibition at 1 μM MC4-R (MC4-R [1]; [12]): 95%; Inhibition at 1 μM MC5-R (MC5-R [4]; [12]): 93%; agonist/antagonist status as to MC4-R (MC4-R (HEK-293 cells)): agonist; Inhibition at 1 μM MC3-R (MC3-R [5]; [12]): 40%; Inhibition at 1 μM MC1-R [6, 12]: 54%"
